The source of these data is patent publication US10005733B2, “N-(4-hydroxy-4-methyl-cyclohexyl)-4-phenyl-benzenesulfonamide and N-(4-hydroxy-4-methyl-cyclohexyl)-4-(2-pyridyl)-benzenesulfonamide compounds and their therapeutic use” (PIMCO 2664 LIMITED, priority 2014, dated 2018).

The subject of assay [1] is human primary osteoclasts. Nature of the assay: Human Primary Osteoclastogenesis (TRAP-positive multinucleated cells from CD14+ monocytes). The settings on record: compound added on Day 4 of monocyte differentiation; for IC50: Homo sapiens, Osteoclast, 96 h. In kind it is cell-based. On the procedure:
In vitro potency of test compounds was determined by incubating them with human primary monocytes and assessing effects on the formation of mature osteoclasts.
The activity of the compounds in reducing the formation of human primary osteoclasts (osteoclastogenesis) was tested using monocytes derived from human whole blood. Monocytes, which are positive for the cell surface marker CD14, are part of the innate immune system found in the circulation. Peripheral blood monocytes differentiate to form several cell types, including osteoclasts. Human primary osteoclasts were […] macrophage colony-stimulating factor (M-CSF) and RANKL+10% foetal calf serum for approximately 6 days, with the exact duration depending on the individual donor of the cells.
When monocytes are cultured under the conditions described above, they form large, multinucleated cells (osteoclasts), which stain positively for tartrate-resistant acid phosphatase (TRAP). TRAP staining was performed between Days 5-6 of culture depending on the individual donor. Osteoclasts are identified as cells which stain positive for TRAP and contain more than 3 nuclei. Compounds which reduce the number of TRAP-positive cells reduce the formation of osteoclasts. The bisphosphonate compound, alendronate, which is used in the treatment of osteoporosis, is used as a positive control for reducing osteoclastogenesis in this assay.
Effects on osteoclast formation were assessed by staining for TRAP and counting cells containing more than three nuclei in each well under a microscope. This allows the absolute determination of cell number in each treated well.
PBMCs (peripheral blood mononuclear cells) were collected from healthy donors and isolated by centrifugation on a layer of Ficoll Paque (GE Healthcare, UK). Monocytes were then sorted from the PBMCs using an autoMACS Pro Separator (MiltenyiBiotec), which sorts cells depending on the markers present on their cell surface. The resulting CD14+ monocytes were resuspended in αMEM supplemented with 10% FCS, 25 ng/mL M-CSF and 100 ng/ml RANKL and added to a 48-well plate, which was then incubated for up to 6 days at 37° C./5% CO2. […] The medium was replenished every 2 days.
At the end of the culture period, the medium was removed from the cells and the cells were fixed at room temperature and then washed with phosphate-buffered saline. TRAP staining solution was then added and the cells incubated at 37° C. until a red colour had developed, after which the reaction was stopped by rinsing with water. The stained cells were air-dried and then photographed using a conventional microscope and the TRAP-positive multinucleated osteoclasts counted by two independent observers.
The average results (n=6) for each concentration of test compound were averaged between the two observers and then expressed as a fold change versus the average control value. The data were then plotted graphically using software from Grafit (Erithacus Software).

In assay [2] the test system is DoHH2 B-cell lymphoma cells. In words: DoHH2 B Cell Lymphoma Proliferation Assay. It counts as cell-based. The settings on record: Homo sapiens, DOHH-2; 72 hour incubation, flow cytometry with counting beads and eFluor 450. On the procedure:
In vitro potency of test compounds was determined by incubation with DoHH2 B-cell lymphoma cells and subsequent determination of cell number using flow cytometry.
Flow cytometry is a laser-based, biophysical technology employed in cell counting, cell sorting, and biomarker detection, by suspending cells in a stream of fluid and passing them by an electronic detection apparatus. It allows simultaneous multi-parametric analysis of the physical and chemical characteristics of up to thousands of particles per second. To quantify cell numbers, counting beads are used as an internal standard. Counting beads are a calibrated suspension of microbeads which are added to a known volume of sample so the sample volume per bead is known. This allows the absolute determination of cell number in a sample. Cell proliferation is measured using a dye known as Cell Proliferation Dye (eFluor® 450). eFluor® 450 is an organic dye which can be conjugated to cell-specific markers. […]
The average results for each test compound were expressed as a percent (%) of the average control value reflecting cell viability. The average values across the concentrations tested were then plotted and an IC50 was calculated by fitting the data to a 4-parameter IC50 equation using KaleidaGraph software (Synergy Software, Reading, Pa. USA).

Each structure is given as a SMILES string.

For `C[C@]1(O)CC[C@H](NS(=O)(=O)c2ccc(-c3ccc(F)cc3F)cc2)CC1` [ABD900], in assay [1], the “% reduction at 1 μM” value was 90% and the concentration for half-maximal inhibition (IC50) was 0.37 µM.

In the case of `C[C@]1(O)CC[C@@H](NS(=O)(=O)c2ccc(-c3ccc(C#N)cc3)c(F)c2)CC1` [HMC-C-07-B, 4′-Cyano-2-fluoro-N-((1s,4s)-4-hydroxy-4-methylcyclohexyl)-[1,1′-biphenyl]-4-sulfonamide], in assay [1], the “% reduction at 1 μM” value is 90% and the midpoint of inhibition, the IC50, lay at 0.12 µM. In addition, the IC50 in assay [2] came to 0.186 µM.

In the case of `C[C@]1(O)CC[C@@H](NS(=O)(=O)c2ccc(-c3ccc(F)cc3F)cc2)CC1` [ABD899, reference compound], in assay [2], the IC50 was determined as 0.135 µM.

One may read the IC50 as the concentration needed to halve the response being measured.
